We go through 86 compounds from PubChem BioAssay AID489040 (Sanford-Burnham Center for Chemical Genomics, 2010).

Active and inactive are the calls of the source.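 How the source made its calls: active means mean half-maximal activating concentration from the dose-response fit at or below a set limit; inactive means the rest.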 A value given as a limit tells only on which side of the number the result lay.

The target in the assay is CHO-XBP1 luciferase reporter, IRE1-XBP1 UPR activation. The assay is described as follows: XBP1 luciferase reporter activation – CHO-XBP1 cells, luminescence, counter-screen for apoptotic UPR arm activators, dose response (AID 489040).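 Further: reporter read after six hours of compound exposure.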 Background: In a reporter assay the amount or activity of a reporter protein is the signal.
For the compound `CCOc1cc(/C=C2/C(=N)N3C=CSC3=NC2=O)ccc1OCCCOc1ccccc1C`, the EC50 was 20 µM.
Take `Cc1cc(C)c(C(CC(=O)c2cccs2)C(C#N)C#N)c(C)c1` (stereo unspecified): the EC50 was > 80 µM (inactive).
Take `Cc1ccc(S(=O)(=O)Nc2cccc3cccnc23)cc1`: the EC50 is > 80 µM (inactive).
Take `O=C(Nc1nccs1)c1cccc(N2C(=O)c3cccc4c([N+](=O)[O-])ccc(c34)C2=O)c1`: the EC50 was > 80 µM (inactive).
To `O=C(C[C@H]1C[C@H](C(=O)N2CCCCC2)[C@@]2(CCc3ccccc3)c3[nH]c4ccc(Cl)cc4c3CCN2C1=O)NCCC1=CCCCC1` belongs “inactive”; to `COc1ccccc1N=c1oc2c(OC)cccc2cc1C(=O)NCc1ccco1`, “inactive”; to `CCOC(=O)/C(=C\c1ccc(Cl)cc1)c1nc2sc(C)c(C)c2c(=O)[nH]1`, > 80 µM (inactive).
For the compound `CC(=O)/C(=C/c1ccccc1)C(=O)Nc1ccccc1C`, the EC50 is > 80 µM (inactive).
To `CCCCC(CC)CN=C(N)NC(N)=NCCCCCCN=C(N)NC(N)=NCC(CC)CCCC` (stereo unspecified) belongs > 80 µM (inactive); to `N=c1c(-c2nc3ccccc3[nH]2)cc(C(=O)c2ccco2)nn1-c1ccccc1`, > 80 µM (inactive).
`O=C1NC(=O)N(CCc2ccc(F)cc2)C(=O)/C1=C/C=C/c1ccccc1`: the EC50 was > 80 µM (inactive).
As for `O=C(COc1ccc(/C=N/NC(=O)c2cc3ccccc3o2)cc1Br)Nc1ccccc1`, the EC50 was 4.66 µM.
The same measure for `C/C(CCC12CC3CC(CC(C3)C1)C2)=N\NC(N)=S`: > 80 µM (inactive); for `CC1(C)CC(=O)C(=Cc2cn(-c3ccccc3)nc2-c2ccc(Cl)cc2)C(=O)C1`: > 80 µM (inactive).
As for `Cc1ccc(Sc2c([N+](=O)[O-])c(=O)n(C)c3ccccc23)cc1`, the EC50 is > 80 µM (inactive).
With `O=S(=O)(Nc1cccc2cccnc12)c1ccc(S(=O)(=O)N2CCCC2)cc1`, the EC50 is > 80 µM (inactive).
Turning to `CC(=O)N(\C=C/C=C/C=C1\Sc2ccccc2C1=O)c1ccccc1`, the EC50 was > 80 µM (inactive).
Take `CC(=O)c1cccc(NC(=O)CSc2ncc(C(=O)Nc3ccccc3)c(=O)n2C)c1`: the EC50 is > 80 µM (inactive).
Consider `CCOC(=O)C(=Cc1ccc(F)cc1)C(=O)OCC`, for which the EC50 was > 80 µM (inactive).
In the case of `CC(=O)c1cccc(N=Cc2c(O)c3ccccc3oc2=O)c1`, the EC50 is 15.4 µM.
Consider `O=C(c1cccs1)N(C(=O)c1cccs1)c1ccc(Br)cn1`, for which the EC50 was 17.9 µM.
`COc1cccc(/C=N/Nc2nc(Nc3ccccc3)nc(-n3nc(C)cc3C)n2)c1O`: the EC50 was 5.09 µM.
To `COc1cccc(N=Cc2c(O)c3ccccc3oc2=O)c1` belongs > 80 µM (inactive); to `CN(C)C(=S)N=Nc1[nH]c2ccccc2c1O`, > 80 µM (inactive).
With `C/C(=N\NC(=O)c1cc2ccccc2cc1O)c1ccccn1`, the EC50 was > 80 µM (inactive).
The same measure for `Cc1[nH]c2ccccc2c1CN1CCC(Cc2ccccc2)CC1`: > 80 µM (inactive); for `CC(C)c1ccc(N2C(=O)NC(=O)/C(=C\C=C\c3ccco3)C2=O)cc1`: > 80 µM (inactive); for `C/C(=N\NC(=O)C(C)Oc1ccc([N+](=O)[O-])cc1)c1ccccn1` (stereo unspecified): > 80 µM (inactive).
Regarding `Clc1ccc(-c2ccc(/C=N/Nc3nncc(-c4ccccc4)n3)o2)cc1`, the EC50 result is “inactive”.
For `Cn1c(/C=C/c2ccc([N+](=O)[O-])o2)nc2ccccc2c1=O`, the EC50 is > 80 µM (inactive).
As to `CCOC(=O)c1cnc(Nc2nc3ccccc3o2)nc1CSC(=S)N(CC)CC`, the EC50 is 4.59 µM.
Consider `CCOC(=O)Cc1csc(/N=C/c2c(O)n(-c3ccc(C)c(C)c3)c(=O)c3ccccc23)n1`, for which the EC50 is 18.3 µM.
On to `O=C(NC1CCCC1)C(c1ccc(F)cc1)N(Cc1ccc(F)cc1)C(=O)CCl` (stereo unspecified), for which the EC50 is > 80 µM (inactive).
As for `CC1=CC(C)(C)Nc2ccc(OC(=O)CN3C(=O)C4CCCCC4C3=O)cc21` (stereo unspecified), the EC50 is > 80 µM (inactive).
Take `CCOC(=O)c1cnc(-n2nc(C)cc2C)nc1Nc1ccc(N(C)C)cc1`: the EC50 was > 80 µM (inactive).
Consider `O=C(CN(c1cccc(C(F)(F)F)c1)S(=O)(=O)c1ccc(Cl)c([N+](=O)[O-])c1)NCc1ccc(F)cc1`, for which the EC50 was > 80 µM (inactive).
To `O=C1Nc2ccccc2/C1=C/C(=O)c1cccs1` belongs > 80 µM (inactive).
`C/C(=N\NC(=O)C(c1ccccc1)c1ccccc1)c1ccccn1`: the EC50 was > 80 µM (inactive).
For the compound `COc1ccc(-c2cc(-c3ccccc3)c(C#N)c(S(C)(=O)=O)n2)cc1`, the EC50 is 5.94 µM.
The same measure for `Oc1ccc(CN2CCN(Cc3ccccc3)CC2)c2cccnc12`: > 80 µM (inactive); for `CC(NC(=O)CN(c1cccc(C(F)(F)F)c1)S(=O)(=O)c1ccc(Cl)c([N+](=O)[O-])c1)c1ccccc1` (stereo unspecified): > 80 µM (inactive).
The same measure for `CCOC(=O)c1c(C)oc2c1c(C(c1ccccc1)N1CCOCC1)c(O)c1ccccc12` (stereo unspecified): > 80 µM (inactive); for `O=C(Nc1ccc2oc(-c3ccncc3)nc2c1)c1ccc([N+](=O)[O-])o1`: > 80 µM (inactive).
Turning to `CCc1ccc2nc(N(CCCN(C)C)C(=O)c3ccc(S(=O)(=O)N4CCc5ccccc5C4)cc3)sc2c1`, the EC50 is > 80 µM (inactive).
Take `Oc1c(C(c2ccccn2)N2CCC(Cc3ccccc3)CC2)cc(Cl)c2cccnc12` (stereo unspecified): the EC50 was > 80 µM (inactive).
With `CC(C)N=c1scc(-c2cccs2)n1/N=C/c1ccc(O)c(O)c1O`, the EC50 was > 80 µM (inactive).
Consider `S=C1SCN(Cc2ccco2)CN1Cc1ccco1`, for which the EC50 is > 80 µM (inactive).
With `CCOc1cc(/C=C2\CN(CC)C/C(=C\c3ccc(O)c(OCC)c3)C2=O)ccc1O`, the EC50 is > 80 µM (inactive).
For `CN1/C(=C\C(=O)COC(=O)c2ccc(O)c(O)c2)C(C)(C)c2ccccc21`, the EC50 is 9.91 µM.
To `Cc1ccc(N2CCN(c3ccc(NCc4nc5ccccc5n4C)cc3)CC2)cc1` belongs “inactive”; to `O=C(NCc1cccnc1)/C(=C/c1ccc(-c2cccc(Cl)c2)o1)S(=O)(=O)c1ccccc1`, > 80 µM (inactive); to `COc1ccc2c(c1OC)C(=O)OC2Nc1nc(-c2ccccc2)cs1` (stereo unspecified), > 80 µM (inactive).
In the case of `COc1cc(/C=C(/C#N)c2nc3ccccc3[nH]2)ccc1OCC(=O)Nc1ccccc1C(C)C`, the EC50 was > 80 µM (inactive).
On to `COc1ccccc1C(=O)NC(=S)NNC(=O)c1sc2ccccc2c1Cl`, for which the EC50 entry is “inactive”.
For `CC(C)N1C/C(=C/c2ccsc2)C(=O)/C(=C/c2ccsc2)C1`, the EC50 is > 80 µM (inactive).
In the case of `Cc1cc(C(=O)Cn2ncc(Cl)c(Cl)c2=O)c(C)n1CC(F)(F)F`, the EC50 was > 80 µM (inactive).
For the compound `CC1=C(/C=C/C(C)=C/C=C/C(C)=C/C(=O)Nc2ccc(O)cc2)C(C)(C)CCC1`, the EC50 was > 80 µM (inactive).
The same measure for `Cc1ccc(C(C[N+](=O)[O-])n2nc(C)cc2C)cc1` (stereo unspecified): > 80 µM (inactive).
`Oc1ccc(-c2cn3ccccc3n2)cc1O`: the EC50 was > 80 µM (inactive).
As for `CC(=O)Oc1ccc(OC(C)=O)c(SCCCCCN2CCOCC2)c1`, the EC50 was > 80 µM (inactive).
Take `CCOC(=O)c1sc(N(Cc2ccccc2)C(=O)CCl)nc1C`: the EC50 was 8.65 µM.
For `Oc1[nH]c2ccccc2c1N=NC(=S)N1CCOCC1`, the EC50 result is “inactive”.
Take `CCOc1ccc2c(c1)C(=NNC(=O)c1ccncc1)c1cc(OCC)ccc1-2`: the EC50 is > 80 µM (inactive).
With `COc1ccc(-c2csc3nc(-c4ccc(C)cc4)oc(=O)c23)cc1OC`, the EC50 is > 80 µM (inactive).
The same measure for `N#CC1=C(N)OC2=C(CC/C2=C\c2ccccc2)C1c1ccccc1` (stereo unspecified): > 80 µM (inactive); for `CCCCCCCCCn1c2c(c(=N)c3c1CCC3)CCCC2`: “inactive”.
Take `O=C(CCl)Nc1cccc(S(=O)(=O)NC2=NCCCCC2)c1`: the EC50 is > 80 µM (inactive).
In the case of `CCc1cccc2c(C(=O)CCl)c[nH]c12`, the EC50 is > 80 µM (inactive).
With `COc1ccc(C(=O)/C=C2/C(=O)Nc3ccccc32)c(OC)c1`, the EC50 was > 80 µM (inactive).
In the case of `Oc1ccc(CN2CCN(c3ccccc3)CC2)c2cccnc12`, the EC50 was > 80 µM (inactive).
For `COc1ccc(NC(=O)C(=O)N/N=C\c2ccc(CNC(=O)C(=O)Nc3ccc(C)c(C)c3)o2)c(OC)c1`, the EC50 is > 80 µM (inactive).
With `O=C(Nc1ccc2oc(-c3ccc4ccccc4c3)nc2c1)c1ccc2c(c1)OCCO2`, the EC50 entry is “inactive”.
Take `O=C(NC1CCCC1)C(c1ccc(Cl)cc1)N(Cc1ccc(F)cc1)C(=O)CCl` (stereo unspecified): the EC50 was > 80 µM (inactive).
`COc1ccc2c(C(=O)CCl)c[nH]c2c1`: the EC50 was > 80 µM (inactive).
As for `Fc1ccc(NC(=S)Nc2nccs2)cc1`, the EC50 was > 80 µM (inactive).
With `CCCCCCCC(=O)Nc1ccc(C(=O)N/N=C/c2cccc([N+](=O)[O-])c2)cc1`, the EC50 was 17.5 µM.
For the compound `Brc1ccccc1CN1CCN(Cc2c[nH]c3ccccc23)CC1`, the EC50 was > 80 µM (inactive).
The same measure for `CCN(CC)S(=O)(=O)c1cc(NC(=O)Cn2ncc(Cl)c(Cl)c2=O)ccc1C`: > 80 µM (inactive).
Take `Cc1ccccc1NC(=O)c1ccc(N/N=C/c2ccccc2O)c([N+](=O)[O-])c1`: the EC50 is > 80 µM (inactive).
The same measure for `COc1cc(SC#N)ccc1N=Cc1c(C)[nH]n(-c2ccc(Cl)cc2)c1=O`: 15.9 µM; for `O=C(N/N=C/c1ccccn1)c1cc(-c2ccc(Br)cc2)nc2ccccc12`: > 80 µM (inactive); for `Cc1cc(C(=O)CCl)c(C)n1Cc1ccco1`: > 80 µM (inactive).
In the case of `CC[C@@H](C)[C@H](NC(=O)OC(C)(C)C)c1nnc(S(=O)(=O)Cc2cc(C)ccc2C)o1`, the EC50 was > 80 µM (inactive).
Take `CCOC(=O)C(CC)(CC)C(=O)/C=C/c1cccc(Br)c1`: the EC50 is > 80 µM (inactive).
`Cc1cccc(N=Nc2ccc(O)c3ncccc23)c1`: the EC50 is > 80 µM (inactive).
Take `Oc1c(Cl)cc(CN2CCOCC2)c2cccnc12`: the EC50 was > 80 µM (inactive).

The term EC50 denotes the concentration needed to bring the measured effect to its halfway point.
